Results published in ChEMBL document CHEMBL5143756, “Identification of a BAZ2A-Bromodomain Hit Compound by Fragment Growing” (ACS Med Chem Lett, 2022).

Biological target: Bromodomain adjacent to zinc finger domain protein 2A (Homo sapiens) (UniProt Q9UIF9)
Test: Inhibition of His6-tagged BAZ2A (unknown origin) (1796 to 1899 residues) assessed as residual activity at 100 uM using H3K(Ac)14 substrate by AlphaScreen assay relative to control

Bromodomain adjacent to zinc finger domain protein 2A (Homo sapiens), sequence (Q9UIF9 whole entry, the tested form may be a part): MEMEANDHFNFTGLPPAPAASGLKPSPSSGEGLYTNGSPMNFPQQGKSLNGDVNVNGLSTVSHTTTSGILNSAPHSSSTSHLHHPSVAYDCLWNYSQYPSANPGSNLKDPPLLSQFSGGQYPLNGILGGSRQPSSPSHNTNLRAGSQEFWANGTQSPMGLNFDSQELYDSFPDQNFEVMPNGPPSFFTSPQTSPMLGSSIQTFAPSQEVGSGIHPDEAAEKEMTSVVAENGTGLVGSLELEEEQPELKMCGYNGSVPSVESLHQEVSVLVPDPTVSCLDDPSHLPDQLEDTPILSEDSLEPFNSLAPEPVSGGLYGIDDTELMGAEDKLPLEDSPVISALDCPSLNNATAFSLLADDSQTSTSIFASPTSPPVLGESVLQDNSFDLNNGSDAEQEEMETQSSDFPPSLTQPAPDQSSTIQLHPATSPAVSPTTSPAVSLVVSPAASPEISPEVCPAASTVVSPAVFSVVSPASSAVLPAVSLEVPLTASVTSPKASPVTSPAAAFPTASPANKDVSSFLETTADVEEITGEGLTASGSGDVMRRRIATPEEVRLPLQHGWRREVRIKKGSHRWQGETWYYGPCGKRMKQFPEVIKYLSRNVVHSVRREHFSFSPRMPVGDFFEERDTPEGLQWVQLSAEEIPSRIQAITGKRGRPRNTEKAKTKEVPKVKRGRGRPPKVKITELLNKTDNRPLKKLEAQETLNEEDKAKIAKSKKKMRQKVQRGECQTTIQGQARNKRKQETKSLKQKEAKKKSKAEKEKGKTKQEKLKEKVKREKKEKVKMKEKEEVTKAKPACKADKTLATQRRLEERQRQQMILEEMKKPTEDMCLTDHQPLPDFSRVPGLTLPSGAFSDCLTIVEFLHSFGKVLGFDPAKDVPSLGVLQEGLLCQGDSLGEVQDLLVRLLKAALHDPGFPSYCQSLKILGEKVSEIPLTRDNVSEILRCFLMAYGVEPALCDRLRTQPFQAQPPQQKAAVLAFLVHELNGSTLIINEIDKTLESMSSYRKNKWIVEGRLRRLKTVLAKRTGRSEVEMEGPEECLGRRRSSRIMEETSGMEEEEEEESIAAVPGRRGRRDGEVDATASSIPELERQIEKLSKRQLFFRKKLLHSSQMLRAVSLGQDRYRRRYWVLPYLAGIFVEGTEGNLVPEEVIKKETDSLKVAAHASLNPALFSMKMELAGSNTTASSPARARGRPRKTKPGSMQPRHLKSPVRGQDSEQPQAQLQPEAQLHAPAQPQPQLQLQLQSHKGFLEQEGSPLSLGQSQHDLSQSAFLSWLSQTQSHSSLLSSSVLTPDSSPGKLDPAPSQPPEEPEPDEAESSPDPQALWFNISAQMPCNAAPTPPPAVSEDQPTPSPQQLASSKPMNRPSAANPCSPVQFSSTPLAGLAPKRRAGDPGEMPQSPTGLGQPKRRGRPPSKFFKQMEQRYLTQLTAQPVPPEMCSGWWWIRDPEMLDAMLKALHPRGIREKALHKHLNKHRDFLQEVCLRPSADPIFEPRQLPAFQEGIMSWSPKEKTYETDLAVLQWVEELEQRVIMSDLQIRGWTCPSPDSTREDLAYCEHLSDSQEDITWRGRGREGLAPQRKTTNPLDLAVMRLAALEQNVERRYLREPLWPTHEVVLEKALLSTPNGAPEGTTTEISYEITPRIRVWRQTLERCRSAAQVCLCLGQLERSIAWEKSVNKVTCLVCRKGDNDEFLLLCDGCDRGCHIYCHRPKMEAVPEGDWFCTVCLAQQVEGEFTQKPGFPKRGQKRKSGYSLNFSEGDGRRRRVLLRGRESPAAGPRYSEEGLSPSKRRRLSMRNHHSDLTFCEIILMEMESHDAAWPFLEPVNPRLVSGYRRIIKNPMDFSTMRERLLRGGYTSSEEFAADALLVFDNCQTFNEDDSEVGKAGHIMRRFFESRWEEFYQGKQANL

CC(=O)c1c(C)[nH]c(-c2csc(N=C(N)N)n2)c1CCC(C)C
Activity: > 50%
